{"source": "the NIST ThermoML archive (doi:10.1021/acs.jced.5b00156)", "key": {"[1]": {"settings": "101.33 kPa, Liquid; for viscosity: Concentric cylinders viscometry; for mass density: vibrating tube"}, "[2]": {"experiment": "refractive index (Na D-line) (dimensionless)", "settings": "101.33 kPa, Liquid, Standard Abbe refractometry"}}, "note": "± gives the expanded uncertainty stated by the source.", "data": [{"smiles": "COC(=O)c1ccccc1C(=O)OC", "note": "[dimethyl 1,2-benzenedicarboxylate]", "values": [{"measurement": "viscosity", "setting": "[1]; 288.15 K", "value": "23.53 ± 0.49", "unit": "mPa·s"}, {"measurement": "mass density", "setting": "[1]; 288.15 K", "value": "1196.23 ± 0.33", "unit": "kg/m3"}, {"measurement": "viscosity", "setting": "[1]; 293.15 K", "value": "17.7 ± 0.37", "unit": "mPa·s"}, {"measurement": "mass density", "setting": "[1]; 293.15 K", "value": "1191.54 ± 0.33", "unit": "kg/m3"}, {"measurement": "viscosity", "setting": "[1]; 298.15 K", "value": "13.93 ± 0.29", "unit": "mPa·s"}, {"measurement": "mass density", "setting": "[1]; 298.15 K", "value": "1186.87 ± 0.33", "unit": "kg/m3"}, {"measurement": "viscosity", "setting": "[1]; 303.15 K", "value": "11.15 ± 0.23", "unit": "mPa·s"}, {"measurement": "mass density", "setting": "[1]; 303.15 K", "value": "1182.2 ± 0.33", "unit": "kg/m3"}, {"measurement": "viscosity", "setting": "[1]; 308.15 K", "value": "9.123 ± 0.19", "unit": "mPa·s"}, {"measurement": "mass density", "setting": "[1]; 308.15 K", "value": "1177.55 ± 0.33", "unit": "kg/m3"}, {"measurement": "viscosity", "setting": "[1]; 313.15 K", "value": "7.612 ± 0.16", "unit": "mPa·s"}, {"measurement": "mass density", "setting": "[1]; 313.15 K", "value": "1172.91 ± 0.32", "unit": "kg/m3"}, {"measurement": "viscosity", "setting": "[1]; 318.15 K", "value": "6.453 ± 0.13", "unit": "mPa·s"}, {"measurement": "mass density", "setting": "[1]; 318.15 K", "value": "1168.28 ± 0.32", "unit": "kg/m3"}, {"measurement": "viscosity", "setting": "[1]; 323.15 K", "value": "5.578 ± 0.12", "unit": "mPa·s"}, {"measurement": "mass density", "setting": "[1]; 323.15 K", "value": "1163.65 ± 0.32", "unit": "kg/m3"}, {"measurement": "refractive index", "setting": "[2]; 288.15 K", "value": "1.51708 ± 0.00053"}, {"measurement": "refractive index", "setting": "[2]; 293.15 K", "value": "1.51494 ± 0.00053"}, {"measurement": "refractive index", "setting": "[2]; 298.15 K", "value": "1.51286 ± 0.00053"}, {"measurement": "refractive index", "setting": "[2]; 303.15 K", "value": "1.51083 ± 0.00053"}, {"measurement": "refractive index", "setting": "[2]; 308.15 K", "value": "1.50885 ± 0.00053"}, {"measurement": "refractive index", "setting": "[2]; 313.15 K", "value": "1.50693 ± 0.00053"}, {"measurement": "refractive index", "setting": "[2]; 318.15 K", "value": "1.50507 ± 0.00053"}, {"measurement": "refractive index", "setting": "[2]; 323.15 K", "value": "1.50303 ± 0.00053"}]}, {"smiles": "COC(=O)CCCCC(=O)OC", "note": "[dimethyl 1,6-hexanedioate]", "values": [{"measurement": "viscosity", "setting": "[1]; 288.15 K", "value": "3.778 ± 0.079", "unit": "mPa·s"}, {"measurement": "mass density", "setting": "[1]; 288.15 K", "value": "1066.79 ± 0.28", "unit": "kg/m3"}, {"measurement": "viscosity", "setting": "[1]; 293.15 K", "value": "3.313 ± 0.069", "unit": "mPa·s"}, {"measurement": "mass density", "setting": "[1]; 293.15 K", "value": "1061.92 ± 0.27", "unit": "kg/m3"}, {"measurement": "viscosity", "setting": "[1]; 298.15 K", "value": "2.937 ± 0.062", "unit": "mPa·s"}, {"measurement": "mass density", "setting": "[1]; 298.15 K", "value": "1057.05 ± 0.27", "unit": "kg/m3"}, {"measurement": "viscosity", "setting": "[1]; 303.15 K", "value": "2.629 ± 0.055", "unit": "mPa·s"}, {"measurement": "mass density", "setting": "[1]; 303.15 K", "value": "1052.18 ± 0.27", "unit": "kg/m3"}, {"measurement": "viscosity", "setting": "[1]; 308.15 K", "value": "2.366 ± 0.05", "unit": "mPa·s"}, {"measurement": "mass density", "setting": "[1]; 308.15 K", "value": "1047.3 ± 0.27", "unit": "kg/m3"}, {"measurement": "viscosity", "setting": "[1]; 313.15 K", "value": "2.143 ± 0.045", "unit": "mPa·s"}, {"measurement": "mass density", "setting": "[1]; 313.15 K", "value": "1042.41 ± 0.27", "unit": "kg/m3"}, {"measurement": "viscosity", "setting": "[1]; 318.15 K", "value": "1.953 ± 0.041", "unit": "mPa·s"}, {"measurement": "mass density", "setting": "[1]; 318.15 K", "value": "1037.52 ± 0.26", "unit": "kg/m3"}, {"measurement": "viscosity", "setting": "[1]; 323.15 K", "value": "1.794 ± 0.038", "unit": "mPa·s"}, {"measurement": "mass density", "setting": "[1]; 323.15 K", "value": "1032.62 ± 0.26", "unit": "kg/m3"}, {"measurement": "refractive index", "setting": "[2]; 288.15 K", "value": "1.43082 ± 0.00053"}, {"measurement": "refractive index", "setting": "[2]; 293.15 K", "value": "1.42876 ± 0.00053"}, {"measurement": "refractive index", "setting": "[2]; 298.15 K", "value": "1.42669 ± 0.00053"}, {"measurement": "refractive index", "setting": "[2]; 303.15 K", "value": "1.42463 ± 0.00053"}, {"measurement": "refractive index", "setting": "[2]; 308.15 K", "value": "1.42255 ± 0.00053"}, {"measurement": "refractive index", "setting": "[2]; 313.15 K", "value": "1.42048 ± 0.00053"}, {"measurement": "refractive index", "setting": "[2]; 318.15 K", "value": "1.41835 ± 0.00053"}, {"measurement": "refractive index", "setting": "[2]; 323.15 K", "value": "1.41631 ± 0.00053"}]}]}
